# Assay results reported in ChEMBL document CHEMBL1201862, “PubChem BioAssay data set” (2004).
#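 In this assay, cells in 96-well plates receive the compound at five concentrations for 48 hours. Endpoints are linearly interpolated between the surrounding concentrations. Here, GI50 denotes the concentration required for 50% inhibition of growth.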 Activity calls are given as the source filed them. Cut-off read from the data, not from the text of the source: active = GI50 up to about 1.1 µM and inactive = higher.
# Tests used:
# Assay in all cases: NCI anticancer screen, dose series, 48 h
# 786-0 = test system: 786-0
# A498 = test system: A498
# A549 = test system: A549
# ACHN = test system: ACHN
# BT-549 = test system: BT-549
# CAKI-1 = test system: CAKI-1
# CCRF-CEM = test system: CCRF-CEM
# COLO 205 = test system: COLO 205
# DU-145 = test system: DU-145
# EKVX = test system: EKVX
# HCC 2998 = test system: HCC 2998
# HCT-116 = test system: HCT-116
# HCT-15 = test system: HCT-15
# HL-60 = test system: HL-60
# HOP-62 = test system: HOP-62
# HOP-92 = test system: HOP-92
# HT-29 = test system: HT-29
# Hs-578T = test system: Hs-578T
# IGROV-1 = test system: IGROV-1
# K562 = test system: K562
# KM12 = test system: KM12
# LOX IMVI = test system: LOX IMVI
# M14 = test system: M14
# MCF7 = test system: MCF7
# MDA-MB-231 = test system: MDA-MB-231
# MDA-MB-435 = test system: MDA-MB-435
# MDA-N = test system: MDA-N
# MOLT-4 = test system: MOLT-4
# Malme-3M = test system: Malme-3M
# NCI-H226 = test system: NCI-H226
# NCI-H23 = test system: NCI-H23
# NCI-H460 = test system: NCI-H460
# NCI-H522 = test system: NCI-H522
# NCI/ADR-RES = test system: NCI/ADR-RES
# OVCAR-3 = test system: OVCAR-3
# OVCAR-4 = test system: OVCAR-4
# OVCAR-5 = test system: OVCAR-5
# OVCAR-8 = test system: OVCAR-8
# PC-3 = test system: PC-3
# RPMI-8226 = test system: RPMI-8226
# RXF 393 = test system: RXF 393
# SF-268 = test system: SF-268
# SF-295 = test system: SF-295
# SF-539 = test system: SF-539
# SK-MEL-28 = test system: SK-MEL-28
# SK-MEL-2 = test system: SK-MEL-2
# SK-MEL-5 = test system: SK-MEL-5
# SK-OV-3 = test system: SK-OV-3
# SN12C = test system: SN12C
# SNB-19 = test system: SNB-19
# SNB-75 = test system: SNB-75
# SR = test system: SR
# SW-620 = test system: SW-620
# T47D = test system: T47D
# TK-10 = test system: TK-10
# U-251 = test system: U-251
# UACC-257 = test system: UACC-257
# UACC-62 = test system: UACC-62
# UO-31 = test system: UO-31
# DLD-1 = test system: DLD-1
# DMS-114 = test system: DMS-114
# KM-20L2 = test system: KM-20L2
# LXFL 529 = test system: LXFL 529
# M19-MEL = test system: M19-MEL
# XF498 = test system: XF498
structure (smiles),measurement,setting,value
CCC1(O)CC(OC2CC(N(C)C)C(OC3CC(O)C(OC4CCC(=O)C(C)O4)C(C)O3)C(C)O2)c2c(cc3c(c2O)C(=O)c2c(O)ccc(O)c2C3=O)C1C(=O)OC (configuration not stated),GI50,786-0,< 0.01 µM (active)
same,GI50,A498,< 0.01 µM (active)
same,GI50,A549,< 0.01 µM (active)
same,GI50,ACHN,< 0.01 µM (active)
same,GI50,BT-549,< 0.0152 µM (active)
same,GI50,CAKI-1,< 0.01 µM (active)
same,GI50,CCRF-CEM,< 0.01 µM (active)
same,GI50,COLO 205,< 0.01 µM (active)
same,GI50,DU-145,< 0.01 µM (active)
same,GI50,EKVX,< 0.01 µM (active)
same,GI50,HCC 2998,< 0.01 µM (active)
same,GI50,HCT-116,< 0.01 µM (active)
same,GI50,HCT-15,< 0.01 µM
same,GI50,HL-60,< 0.01 µM (active)
same,GI50,HOP-62,< 0.01 µM (active)
same,GI50,HOP-92,< 0.01 µM (active)
same,GI50,HT-29,< 0.01 µM (active)
same,GI50,Hs-578T,< 0.0407 µM (active)
same,GI50,IGROV-1,< 0.01 µM (active)
same,GI50,K562,< 0.01 µM (active)
same,GI50,KM12,< 0.01 µM (active)
same,GI50,LOX IMVI,< 0.01 µM (active)
same,GI50,M14,< 0.01 µM (active)
same,GI50,MCF7,< 0.01 µM (active)
same,GI50,MDA-MB-231,< 0.0132 µM (active)
same,GI50,MDA-MB-435,< 0.0122 µM (active)
same,GI50,MDA-N,< 0.01 µM (active)
same,GI50,MOLT-4,< 0.01 µM (active)
same,GI50,Malme-3M,< 0.01 µM (active)
same,GI50,NCI-H226,< 0.01 µM (active)
same,GI50,NCI-H23,< 0.01 µM (active)
same,GI50,NCI-H460,< 0.01 µM (active)
same,GI50,NCI-H522,< 0.01 µM (active)
same,GI50,NCI/ADR-RES,< 0.01 µM (active)
same,GI50,OVCAR-3,0.0101 µM (active)
same,GI50,OVCAR-4,< 0.01 µM (active)
same,GI50,OVCAR-5,0.0123 µM (active)
same,GI50,OVCAR-8,< 0.01 µM (active)
same,GI50,PC-3,< 0.01 µM (active)
same,GI50,RPMI-8226,< 0.01 µM (active)
same,GI50,RXF 393,< 0.01 µM (active)
same,GI50,SF-268,< 0.01 µM (active)
same,GI50,SF-295,< 0.01 µM (active)
same,GI50,SF-539,< 0.01 µM (active)
same,GI50,SK-MEL-28,< 0.01 µM (active)
same,GI50,SK-MEL-2,< 0.01 µM (active)
same,GI50,SK-MEL-5,< 0.01 µM (active)
same,GI50,SK-OV-3,< 0.01 µM (active)
same,GI50,SN12C,< 0.01 µM (active)
same,GI50,SNB-19,< 0.0127 µM (active)
same,GI50,SNB-75,< 0.01 µM (active)
same,GI50,SR,< 0.01 µM (active)
same,GI50,SW-620,< 0.01 µM (active)
same,GI50,T47D,< 0.01 µM (active)
same,GI50,TK-10,< 0.01 µM (active)
same,GI50,U-251,< 0.01 µM (active)
same,GI50,UACC-257,< 0.01 µM (active)
same,GI50,UACC-62,< 0.01 µM (active)
same,GI50,UO-31,< 0.01 µM (active)
COc1cccc(OC)c1C(=O)OCc1ccccc1,GI50,786-0,> 100 µM (inactive)
same,GI50,A549,> 100 µM (inactive)
same,GI50,ACHN,> 100 µM (inactive)
same,GI50,CAKI-1,> 100 µM (inactive)
same,GI50,CCRF-CEM,> 100 µM (inactive)
same,GI50,COLO 205,> 100 µM (inactive)
same,GI50,DLD-1,> 100 µM (inactive)
same,GI50,DMS-114,> 100 µM (inactive)
same,GI50,EKVX,> 100 µM (inactive)
same,GI50,HCT-116,> 100 µM (inactive)
same,GI50,HCT-15,> 100 µM
same,GI50,HL-60,> 100 µM (inactive)
same,GI50,HOP-62,> 100 µM (inactive)
same,GI50,HOP-92,> 100 µM (inactive)
same,GI50,HT-29,> 100 µM (inactive)
same,GI50,IGROV-1,> 100 µM (inactive)
same,GI50,K562,> 100 µM (inactive)
same,GI50,KM-20L2,> 100 µM (inactive)
same,GI50,KM12,> 100 µM (inactive)
same,GI50,LXFL 529,> 100 µM (inactive)
same,GI50,M14,> 100 µM (inactive)
same,GI50,M19-MEL,> 100 µM (inactive)
same,GI50,MOLT-4,> 100 µM (inactive)
same,GI50,NCI-H226,> 100 µM (inactive)
same,GI50,NCI-H23,> 100 µM (inactive)
same,GI50,NCI-H460,> 100 µM (inactive)
same,GI50,NCI-H522,> 100 µM (inactive)
same,GI50,OVCAR-3,> 100 µM (inactive)
same,GI50,OVCAR-4,> 100 µM (inactive)
same,GI50,OVCAR-8,> 100 µM (inactive)
same,GI50,RPMI-8226,> 100 µM (inactive)
same,GI50,RXF 393,> 100 µM (inactive)
same,GI50,SF-268,> 100 µM (inactive)
same,GI50,SF-295,> 100 µM (inactive)
same,GI50,SF-539,> 100 µM (inactive)
same,GI50,SK-MEL-28,> 100 µM (inactive)
same,GI50,SK-MEL-2,> 100 µM (inactive)
same,GI50,SK-MEL-5,> 100 µM (inactive)
same,GI50,SK-OV-3,> 100 µM (inactive)
same,GI50,SN12C,> 100 µM (inactive)
same,GI50,SNB-75,> 100 µM (inactive)
same,GI50,SR,> 100 µM (inactive)
same,GI50,SW-620,> 100 µM (inactive)
same,GI50,TK-10,> 100 µM (inactive)
same,GI50,U-251,> 100 µM (inactive)
same,GI50,UACC-257,> 100 µM (inactive)
same,GI50,UACC-62,> 100 µM (inactive)
same,GI50,XF498,> 100 µM (inactive)
